Results reported in patent publication US12590100B2, “Tetrahydro-spiroindoline-pyrrolopyrrole-triones inhibitors of the NRF2-β-TrCP interaction for use in the treatment of fatty liver disease” (Universidad Autonoma De Madrid, priority 2021, dated 2026).

Key:
cell viability = assay: MTT assay of cell viability/toxicity; assay type: cell-based; conditions: all doses used
[1] = system: peritoneal macrophages (Nrf2-4KI); assay: Inflammatory response in LPS-stimulated peritoneal macrophages from Nrf2-4KI mice; assay type: cell-based, mouse; conditions: Nrf2-4KI peritoneal macrophages, PHAR 10 μM 8 h
Procedure: FIG. 8. PHAR reduces inflammatory response in peritoneal macrophages originating from Nrf2^+/+ mice but not in peritoneal macrophages originating from LPS-stimulated Nrf2-4KI mice. Peritoneal macrophages originating from wild-type (WT) and serum-deprived NRF2 knock-in (Nrf2-4Ki) mice were pretreated with 10 μM of PHAR for 8 h. 0.1% DMSO was used as a vehicle. After that period of time, the cells were treated with 100 ng/ml of LPS for 4 h. A), representative immunoblots originating from both cell types of NRF2, HO1, pre-IL1β, COX2, NOS2, and GAPDH as a loading control. B), densitometric analysis of NRF2 and HO1 protein levels of the representative immunoblots of (A), expressed as a ratio of protein/GAPDH levels. The data is depicted as means±SEM (n=3). Statistical analysis was performed with two-way ANOVA followed by the Bonferroni test to compare inter-group differences. *p<0.05; **p<0.01; ***p<0.001 vs. LPS. C), Densitometric analysis of pre-IL1b, COX2, and NOS2 protein levels of the representative immunoblots of (A), expressed as a ratio of protein/GAPDH levels. The data is depicted as means±SEM (n=3). Statistical analysis was performed with two-way ANOVA followed by the Bonferroni test to compare inter-group differences. *p<0.05; **p<0.01; ***p<0.001 vs. LPS. D), the mRNA levels of Hmox1, Il1 β, Cox2, Nos2, Il6, and Tnfα were determined by means of qRT-PCR and normalized by means of average Gapdh, Thp, and β-actin. The data is depicted as mean±SEM (n=3). Statistical analysis was performed with two-way ANOVA followed by the Bonferroni test to check inter-group differences. *p<0.05; **p<0.01; ***p<0.001 vs. LPS.
As a complementary approach, peritoneal macrophages extracted from Nrf2^+/+ mice and knock-in mice generated in the laboratory having 4 serines substituted with alanines in critical positions for phosphorylation by priming kinase/priming kinases and by GSK-3β (Serines 335, 338, 342, and 347) were used. Both cell types were pretreated with DMSO or PHAR (10 μM, 8 h) and then stimulated with LPS (100 ng/ml, 4 h). […]

## O=C1[C@@H]2[C@H](Cc3c[nH]c4ccccc34)N[C@]3(C(=O)Nc4ccc(Cl)cc43)[C@@H]2C(=O)N1c1ccc2c(c1)OCCO2 [PHAR]
Cell viability
  toxicity (cell viability, MTT): does not present toxicity at any of the doses used
[1]
  HO-1 induction: the same HO-1 induction
  NRF2 induction: considerably lower
[1]; LPS 100 ng/ml 4 h
  protective effect against the inflammatory response: lost in almost all the inflammatory markers analyzed
